Measured values reported in patent US9340590B2 (priority 2011, dated 2016).
Where two headings read alike, the source gives them in different places. Positions of bridges follow the written chain, without caps; N, C: chain ends. Non-standard residues stand in square brackets, D forms with d. Residues, ends and D or L forms follow the SMILES beside them. Phe(4-COOH) = N[C@@H](Cc1ccc(C(=O)O)cc1)C(=O)O; NMeF = CN[C@@H](Cc1ccccc1)C(=O)O; Nva = CCC[C@H](N)C(=O)O

Key:
Assay in all cases: cell-based
hNav1.7 = hNav1.7 (Homo sapiens, UniProt Q15858); assay type: cell-based; settings: IonWorks Quattro, read-out: IWQ Use Nav1.7
hNav1.5 = hNav1.5 (Homo sapiens, UniProt Q14524); settings: IonWorks Quattro, read-out: IWQ Use Nav1.5
hNav1.3 = hNav1.3 (Homo sapiens, UniProt Q9NY46); settings: IonWorks Quattro, read-out: IWQ Use Nav1.3
Sequence of hNav1.3 (Q9NY46 whole entry, looked up): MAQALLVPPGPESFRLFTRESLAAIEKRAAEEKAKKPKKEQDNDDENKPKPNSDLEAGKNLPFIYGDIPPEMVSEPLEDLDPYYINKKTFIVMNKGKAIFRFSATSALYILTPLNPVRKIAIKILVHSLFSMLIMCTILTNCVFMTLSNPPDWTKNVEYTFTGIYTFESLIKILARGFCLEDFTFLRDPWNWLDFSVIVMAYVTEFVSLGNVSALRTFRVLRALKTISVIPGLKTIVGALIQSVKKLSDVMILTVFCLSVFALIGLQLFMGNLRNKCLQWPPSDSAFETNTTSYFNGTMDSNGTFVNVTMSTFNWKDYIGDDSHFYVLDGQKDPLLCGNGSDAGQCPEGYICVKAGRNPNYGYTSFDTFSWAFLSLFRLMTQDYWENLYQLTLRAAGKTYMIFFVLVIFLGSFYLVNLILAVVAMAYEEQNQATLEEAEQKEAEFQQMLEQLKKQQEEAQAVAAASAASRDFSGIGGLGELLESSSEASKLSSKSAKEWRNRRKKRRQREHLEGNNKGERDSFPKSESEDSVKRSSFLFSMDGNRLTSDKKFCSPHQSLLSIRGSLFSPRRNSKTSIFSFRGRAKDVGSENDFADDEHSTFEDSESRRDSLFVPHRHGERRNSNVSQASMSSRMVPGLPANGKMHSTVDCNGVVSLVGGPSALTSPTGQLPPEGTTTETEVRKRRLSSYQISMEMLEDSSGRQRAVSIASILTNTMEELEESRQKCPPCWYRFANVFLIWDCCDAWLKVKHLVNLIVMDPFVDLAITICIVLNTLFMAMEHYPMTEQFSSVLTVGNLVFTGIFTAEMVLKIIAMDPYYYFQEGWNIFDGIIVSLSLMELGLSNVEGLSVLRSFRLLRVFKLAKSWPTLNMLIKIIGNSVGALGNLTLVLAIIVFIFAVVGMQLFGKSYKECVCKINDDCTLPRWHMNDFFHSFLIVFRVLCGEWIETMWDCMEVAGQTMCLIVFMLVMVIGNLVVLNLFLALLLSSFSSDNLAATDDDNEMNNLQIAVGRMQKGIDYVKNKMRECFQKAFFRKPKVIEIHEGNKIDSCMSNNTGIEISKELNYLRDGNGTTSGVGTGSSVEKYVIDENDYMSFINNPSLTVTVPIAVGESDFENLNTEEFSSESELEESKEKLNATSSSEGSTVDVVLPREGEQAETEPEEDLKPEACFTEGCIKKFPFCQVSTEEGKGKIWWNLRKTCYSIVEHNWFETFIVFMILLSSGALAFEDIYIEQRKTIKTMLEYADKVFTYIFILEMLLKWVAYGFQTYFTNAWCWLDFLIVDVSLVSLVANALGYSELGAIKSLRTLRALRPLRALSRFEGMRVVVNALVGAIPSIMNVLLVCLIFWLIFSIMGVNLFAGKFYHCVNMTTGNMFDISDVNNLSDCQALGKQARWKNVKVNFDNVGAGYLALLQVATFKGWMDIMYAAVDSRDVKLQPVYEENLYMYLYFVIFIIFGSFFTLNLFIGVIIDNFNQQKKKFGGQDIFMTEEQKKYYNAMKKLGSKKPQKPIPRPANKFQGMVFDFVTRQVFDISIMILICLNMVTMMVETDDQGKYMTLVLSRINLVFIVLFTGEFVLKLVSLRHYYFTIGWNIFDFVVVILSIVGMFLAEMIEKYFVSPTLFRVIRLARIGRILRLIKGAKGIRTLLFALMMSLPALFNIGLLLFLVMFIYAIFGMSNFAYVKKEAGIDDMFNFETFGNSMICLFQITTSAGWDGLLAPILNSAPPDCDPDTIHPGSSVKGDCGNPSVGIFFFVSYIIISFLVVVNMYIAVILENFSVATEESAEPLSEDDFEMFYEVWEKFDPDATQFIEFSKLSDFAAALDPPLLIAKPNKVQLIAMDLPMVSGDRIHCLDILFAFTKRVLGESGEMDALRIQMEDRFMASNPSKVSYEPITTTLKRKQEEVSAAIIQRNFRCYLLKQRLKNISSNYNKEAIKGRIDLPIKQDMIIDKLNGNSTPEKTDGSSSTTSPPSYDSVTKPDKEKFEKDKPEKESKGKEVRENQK

Sequence of hNav1.5 (Q14524 whole entry, looked up): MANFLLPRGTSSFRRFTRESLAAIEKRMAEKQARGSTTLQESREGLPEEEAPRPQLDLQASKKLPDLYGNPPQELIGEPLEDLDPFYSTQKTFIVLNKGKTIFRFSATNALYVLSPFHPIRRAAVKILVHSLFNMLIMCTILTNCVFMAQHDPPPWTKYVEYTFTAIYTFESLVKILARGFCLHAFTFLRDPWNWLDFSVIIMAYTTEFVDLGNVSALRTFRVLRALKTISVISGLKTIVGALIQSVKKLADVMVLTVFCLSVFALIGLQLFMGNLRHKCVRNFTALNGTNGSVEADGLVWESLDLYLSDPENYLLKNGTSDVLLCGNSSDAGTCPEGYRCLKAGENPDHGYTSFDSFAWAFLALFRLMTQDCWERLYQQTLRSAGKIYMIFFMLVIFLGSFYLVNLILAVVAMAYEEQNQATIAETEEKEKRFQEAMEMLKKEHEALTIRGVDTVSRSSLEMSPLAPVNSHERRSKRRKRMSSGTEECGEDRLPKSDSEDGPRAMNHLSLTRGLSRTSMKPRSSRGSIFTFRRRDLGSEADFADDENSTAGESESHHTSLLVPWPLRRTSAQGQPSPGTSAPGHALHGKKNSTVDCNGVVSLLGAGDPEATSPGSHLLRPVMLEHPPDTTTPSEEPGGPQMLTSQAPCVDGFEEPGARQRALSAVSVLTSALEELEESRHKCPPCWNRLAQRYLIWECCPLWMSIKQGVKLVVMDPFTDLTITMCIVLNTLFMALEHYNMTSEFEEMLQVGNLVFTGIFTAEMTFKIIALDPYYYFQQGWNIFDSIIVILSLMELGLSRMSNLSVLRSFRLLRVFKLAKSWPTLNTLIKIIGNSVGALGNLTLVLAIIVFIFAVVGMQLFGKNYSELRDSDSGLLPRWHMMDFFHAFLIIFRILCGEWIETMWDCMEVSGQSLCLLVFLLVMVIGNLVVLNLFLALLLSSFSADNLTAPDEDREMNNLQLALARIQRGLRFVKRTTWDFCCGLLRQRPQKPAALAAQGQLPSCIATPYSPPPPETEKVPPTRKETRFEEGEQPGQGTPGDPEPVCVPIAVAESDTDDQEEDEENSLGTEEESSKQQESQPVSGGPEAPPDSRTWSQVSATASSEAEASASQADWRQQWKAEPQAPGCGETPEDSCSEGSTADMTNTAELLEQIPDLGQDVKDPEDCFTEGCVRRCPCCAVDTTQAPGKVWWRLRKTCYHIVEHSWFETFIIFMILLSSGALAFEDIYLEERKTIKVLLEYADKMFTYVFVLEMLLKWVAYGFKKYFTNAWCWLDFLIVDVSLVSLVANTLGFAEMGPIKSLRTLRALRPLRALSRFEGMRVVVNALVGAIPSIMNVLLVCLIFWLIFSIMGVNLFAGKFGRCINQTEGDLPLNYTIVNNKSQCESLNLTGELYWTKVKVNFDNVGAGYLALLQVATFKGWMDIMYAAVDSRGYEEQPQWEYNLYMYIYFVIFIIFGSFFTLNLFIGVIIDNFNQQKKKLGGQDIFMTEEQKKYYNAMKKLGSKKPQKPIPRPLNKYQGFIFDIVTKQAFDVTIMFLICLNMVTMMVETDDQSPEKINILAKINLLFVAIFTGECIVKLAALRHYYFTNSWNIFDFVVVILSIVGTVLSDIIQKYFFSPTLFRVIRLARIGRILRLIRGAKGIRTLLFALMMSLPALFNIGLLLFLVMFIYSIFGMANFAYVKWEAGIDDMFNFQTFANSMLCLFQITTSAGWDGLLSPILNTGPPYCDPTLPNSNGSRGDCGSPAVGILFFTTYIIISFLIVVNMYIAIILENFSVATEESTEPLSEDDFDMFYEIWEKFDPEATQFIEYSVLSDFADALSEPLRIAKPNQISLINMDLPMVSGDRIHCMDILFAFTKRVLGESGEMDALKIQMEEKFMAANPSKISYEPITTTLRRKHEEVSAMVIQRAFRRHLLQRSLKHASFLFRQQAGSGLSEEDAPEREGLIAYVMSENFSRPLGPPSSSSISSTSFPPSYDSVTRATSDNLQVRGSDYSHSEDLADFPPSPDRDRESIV

CCC[C@@H]1NC(=O)CNC(=O)[C@H](CC(C)C)NC(=O)[C@@H](NC(=O)[C@@H](N)CC(=O)O)CSSC[C@@H]2NC(=O)[C@@H]3CSSC[C@@H](C(=O)N[C@@H](CCCCN)C(=O)N[C@@H](Cc4ccc(O)cc4)C(=O)N[C@H](C(=O)N[C@@H](Cc4ccccc4)C(N)=O)C(C)C)NC(=O)[C@H](Cc4c[nH]c5ccccc45)NC(=O)[C@H](CCCCN)NC(=O)[C@H](Cc4c[nH]cn4)NC(=O)[C@H]([C@@H](C)O)NC(=O)[C@H](CCCNC(=N)N)NC(=O)[C@H](CO)NC(=O)[C@H](CSSC[C@H](NC(=O)[C@H](CCCCN)NC(=O)[C@H](CCCNC(=N)N)NC(=O)[C@H](Cc4ccccc4)NC1=O)C(=O)N[C@@H]([C@@H](C)CC)C(=O)N1CCC[C@H]1C(=O)N[C@@H](CC(=O)O)C(=O)N[C@@H](CC(N)=O)C(=O)N[C@@H](CC(=O)O)C(=O)N[C@@H](CCCCN)C(=O)N3)NC(=O)[C@H](C(C)C)NC(=O)[C@H](CC(C)C)NC(=O)[C@H](CC(N)=O)NC(=O)[C@@H]1CCCN1C(=O)[C@H](CCCNC(=N)N)NC2=O [compound 606] (H-DCLG[Nva]FRKCIPDNDKCCRPNLVCSRTHKWCKYVF-NH2; disulfide 2-17, 9-23, 16-30)
IC50 (hNav1.7; use-dependent block, hNav1.7): 84 nM | IC50 (hNav1.5; use-dependent block, hNav1.5): 7800 nM | IC50 (hNav1.3; use-dependent block, hNav1.3): 170 nM

CC[C@H](C)[C@@H]1NC(=O)[C@@H]2CSSC[C@@H]3NC(=O)[C@H](C(C)C)NC(=O)[C@H](CC(C)C)NC(=O)[C@H](CC(N)=O)NC(=O)[C@@H]4CCCN4C(=O)[C@H](CCCNC(=N)N)NC(=O)[C@H](CSSC[C@H](NC(=O)[C@@H](N)CC(=O)O)C(=O)N[C@@H](CC(C)C)C(=O)NCC(=O)N[C@@H](Cc4ccccc4)C(=O)N[C@@H](CCSC)C(=O)N[C@@H](CCCNC(=N)N)C(=O)N[C@@H](CCCCN)C(=O)N2)NC(=O)[C@H](CSSC[C@@H](C(=O)N[C@@H](CCCCN)C(=O)N[C@@H](Cc2ccccc2)C(=O)N[C@H](C(=O)N[C@@H](Cc2ccccc2)C(N)=O)C(C)C)NC(=O)[C@H](Cc2c[nH]c4ccccc24)NC(=O)[C@H](CCCCN)NC(=O)[C@H](Cc2c[nH]cn2)NC(=O)[C@H]([C@@H](C)O)NC(=O)[C@H](CCCNC(=N)N)NC(=O)[C@H](CO)NC3=O)NC(=O)[C@H](CCCCN)NC(=O)[C@H](CC(=O)O)NC(=O)[C@H](CC(N)=O)NC(=O)[C@H](CC(=O)O)NC(=O)[C@@H]2CCCN2C1=O [compound 377] (H-DCLGFMRKCIPDNDKCCRPNLVCSRTHKWCKFVF-NH2; disulfide 2-17, 9-23, 16-30)
IC50 (hNav1.7; Table 25, use, […]): 50 nM | IC50 (hNav1.5; Table 25, use, […]): 6840 nM | IC50 (hNav1.3; Table 25, use, […]): 50 nM

CSCC[C@@H]1NC(=O)[C@H](Cc2ccccc2)NC(=O)CNC(=O)[C@H](CC(C)C)NC(=O)[C@@H](NC(=O)[C@@H](N)CC(=O)O)CSSC[C@@H]2NC(=O)[C@@H]3CSSC[C@@H](C(=O)N[C@@H](CCCCN)C(=O)N[C@@H](Cc4ccc(O)cc4)C(=O)N[C@H](C(=O)N[C@@H](Cc4ccccc4)C(N)=O)C(C)C)NC(=O)[C@H](Cc4c[nH]c5ccccc45)NC(=O)[C@H](CCCCN)NC(=O)[C@H](Cc4cnc[nH]4)NC(=O)[C@H]([C@@H](C)O)NC(=O)[C@H](CCCNC(=N)N)NC(=O)[C@H](CO)NC(=O)[C@H](CSSC[C@H](NC(=O)[C@H](CCCCN)NC(=O)[C@H](CCCNC(=N)N)NC1=O)C(=O)N[C@@H](CC(C)C)C(=O)N1CCC[C@H]1C(=O)N[C@@H](CC(=O)O)C(=O)N[C@@H](CC(N)=O)C(=O)N[C@@H](CC(=O)O)C(=O)N[C@@H](CCCCN)C(=O)N3)NC(=O)[C@H](C(C)C)NC(=O)[C@H](CC(C)C)NC(=O)[C@H](CC(N)=O)NC(=O)[C@@H]1CCCN1C(=O)[C@H](CCCNC(=N)N)NC2=O [compound 303] (H-DCLGFMRKCLPDNDKCCRPNLVCSRTHKWCKYVF-NH2; disulfide 2-17, 9-23, 16-30)
IC50 (hNav1.7; Use): 130 nM | IC50 (hNav1.5; Use): 8130 nM | IC50 (hNav1.3; Use): 80 nM

CC[C@H](C)[C@@H]1NC(=O)[C@@H]2CSSC[C@@H]3NC(=O)[C@H](C(C)C)NC(=O)[C@H](CC(C)C)NC(=O)[C@H](CC(N)=O)NC(=O)[C@@H]4CCCN4C(=O)[C@H](CCCNC(=N)N)NC(=O)[C@H](CSSC[C@H](NC(=O)[C@@H](N)CC(=O)O)C(=O)N[C@@H](CC(C)C)C(=O)NCC(=O)N[C@@H](Cc4ccccc4)C(=O)N[C@@H](CCSC)C(=O)N[C@@H](CCCNC(=N)N)C(=O)N[C@@H](CCCNC(=N)N)C(=O)N2)NC(=O)[C@H](CSSC[C@@H](C(=O)N[C@@H](CCCCN)C(=O)N[C@@H](Cc2ccc(O)cc2)C(=O)N[C@H](C(=O)N[C@@H](Cc2ccccc2)C(N)=O)C(C)C)NC(=O)[C@H](Cc2c[nH]c4ccccc24)NC(=O)[C@H](CCCCN)NC(=O)[C@H](Cc2cnc[nH]2)NC(=O)[C@H]([C@@H](C)O)NC(=O)[C@H](CCCNC(=N)N)NC(=O)[C@H](CO)NC3=O)NC(=O)[C@H](CCCCN)NC(=O)[C@H](CC(=O)O)NC(=O)[C@H](CC(N)=O)NC(=O)[C@H](CC(=O)O)NC(=O)[C@@H]2CCCN2C1=O [[Arg8]GpTx-1(1-34)] (H-DCLGFMRRCIPDNDKCCRPNLVCSRTHKWCKYVF-NH2; disulfide 2-17, 9-23, 16-30)
IC50 (hNav1.7; use-dependent block, hNav1.7): 140 nM | IC50 (hNav1.5; use-dependent block, hNav1.5): 13800 nM | IC50 (hNav1.3; use-dependent block, hNav1.3): 120 nM

CC[C@H](C)[C@@H]1NC(=O)[C@@H]2CSSC[C@@H]3NC(=O)[C@H](C(C)C)NC(=O)[C@H](CC(C)C)NC(=O)[C@H](CC(N)=O)NC(=O)[C@@H]4CCCN4C(=O)[C@H](CCCNC(=N)N)NC(=O)[C@H](CSSC[C@H](NC(=O)[C@@H](N)CC(=O)O)C(=O)N[C@@H](CC(C)C)C(=O)NCC(=O)N[C@@H](Cc4ccccc4)C(=O)N[C@@H](CCSC)C(=O)N[C@@H](CCCNC(=N)N)C(=O)N[C@@H](CCCCN)C(=O)N2)NC(=O)[C@H](CSSC[C@@H](C(=O)N[C@@H](CCCCN)C(=O)N[C@@H](Cc2ccc(C(=O)O)cc2)C(=O)N[C@H](C(=O)N[C@@H](Cc2ccccc2)C(N)=O)C(C)C)NC(=O)[C@H](Cc2c[nH]c4ccccc24)NC(=O)[C@H](CCCCN)NC(=O)[C@H](Cc2c[nH]cn2)NC(=O)[C@H]([C@@H](C)O)NC(=O)[C@H](CCCNC(=N)N)NC(=O)[C@H](CO)NC3=O)NC(=O)[C@H](CCCCN)NC(=O)[C@H](CC(=O)O)NC(=O)[C@H](CC(N)=O)NC(=O)[C@H](CC(=O)O)NC(=O)[C@@H]2CCCN2C1=O [compound 385] (H-DCLGFMRKCIPDNDKCCRPNLVCSRTHKWCK[Phe(4-COOH)]VF-NH2; disulfide 2-17, 9-23, 16-30)
IC50 (hNav1.7; Table 25, use, […]): 11400 nM | IC50 (hNav1.5; Table 25, use, […]): 7700 nM | IC50 (hNav1.3; Table 25, use, […]): 4050 nM

CC[C@H](C)[C@@H]1NC(=O)[C@@H]2CSSC[C@@H]3NC(=O)[C@H](C(C)C)NC(=O)[C@H](CC(C)C)NC(=O)[C@H](CC(N)=O)NC(=O)[C@@H]4CCCN4C(=O)[C@H](CCCNC(=N)N)NC(=O)[C@H](CSSC[C@H](NC(=O)[C@H](CC(=O)O)NC(=O)[C@H](CO)NC(=O)CN)C(=O)N[C@@H](CC(C)C)C(=O)NCC(=O)N[C@@H](C)C(=O)N[C@@H](Cc4ccccc4)C(=O)N[C@@H](CCCNC(=N)N)C(=O)N[C@@H](CCCCN)C(=O)N2)NC(=O)[C@H](CSSC[C@@H](C(=O)N[C@@H](CCCCN)C(=O)N[C@@H](Cc2ccc(O)cc2)C(=O)N[C@H](C(=O)N[C@@H](Cc2ccccc2)C(=O)O)C(C)C)NC(=O)[C@H](Cc2c[nH]c4ccccc24)NC(=O)[C@H](CCCNC(=N)N)NC(=O)[C@H](Cc2c[nH]cn2)NC(=O)[C@H]([C@@H](C)O)NC(=O)[C@H](CCCNC(=N)N)NC(=O)[C@H](CO)NC3=O)NC(=O)[C@H](CCCCN)NC(=O)[C@H](CC(=O)O)NC(=O)[C@H](CC(N)=O)NC(=O)[C@H](CC(=O)O)NC(=O)[C@@H]2CCCN2C1=O [compound 821] (H-GSDCLGAFRKCIPDNDKCCRPNLVCSRTHRWCKYVF-OH; disulfide 4-19, 11-25, 18-32)
IC50 (hNav1.7; use-dependent block, hNav1.7): 3200 nM | IC50 (hNav1.5; use-dependent block, hNav1.5): > 5000 nM | IC50 (hNav1.3; use-dependent block, hNav1.3): 3200 nM

CC[C@H](C)[C@@H]1NC(=O)[C@@H]2CSSC[C@@H]3NC(=O)[C@H](C(C)C)NC(=O)[C@H](CC(C)C)NC(=O)[C@H](CC(N)=O)NC(=O)[C@@H]4CCCN4C(=O)[C@H](CCCNC(=N)N)NC(=O)[C@H](CSSC[C@H](NC(=O)[C@@H](N)CC(=O)O)C(=O)N[C@@H](CC(C)C)C(=O)NCC(=O)N[C@@H](Cc4ccccc4)C(=O)N[C@@H](CCSC)C(=O)N[C@@H](CCCNC(=N)N)C(=O)N[C@@H](CCCCN)C(=O)N2)NC(=O)[C@H](CSSC[C@@H](C(=O)N[C@@H](CCCCN)C(=O)N[C@@H](Cc2ccc(O)cc2)C(=O)N(C)[C@@H](Cc2ccccc2)C(=O)N[C@@H](Cc2ccccc2)C(N)=O)NC(=O)[C@H](Cc2c[nH]c4ccccc24)NC(=O)[C@H](CCCCN)NC(=O)[C@H](Cc2c[nH]cn2)NC(=O)[C@H]([C@@H](C)O)NC(=O)[C@H](CCCNC(=N)N)NC(=O)[C@H](CO)NC3=O)NC(=O)[C@H](CCCCN)NC(=O)[C@H](CC(=O)O)NC(=O)[C@H](CC(N)=O)NC(=O)[C@H](CC(=O)O)NC(=O)[C@@H]2CCCN2C1=O [compound 388] (H-DCLGFMRKCIPDNDKCCRPNLVCSRTHKWCKY[NMeF]F-NH2; disulfide 2-17, 9-23, 16-30)
IC50 (hNav1.7; Table 26, use, […]): 1280 nM | IC50 (hNav1.5; Table 26, use, […]): > 5000 nM | IC50 (hNav1.3; Table 26, use, […]): 1090 nM
